# According to PubChem BioAssay AID2253 (Southern Research Specialized Biocontainment Screening …, 2010):
# Tested on: THP-1 viability, CellTiter-Glo luminescence, 72 h
# Assay: THP-1 cell cytotoxicity, dose response, cytotoxicity control for Salmonella PhoP regulon inhibitors, S. typhimurium screen hits (AID 2253)
row,SMILES,EC50 [µM]
1,O=C(C[n+]1cccc(CNC(=O)c2ccc(OC(F)F)cc2)c1)Nc1ccc(SC(F)F)cc1,11.7
2,C(=Nc1ccc(Nc2ccccc2)cc1)c1ccc2ccccc2c1,25.8
3,CN(C)c1ccc([C@@H]2[C@@H]([N+](=O)[O-])[C@H]3C=Cc4ccccc4N3[C@H]2C(=O)c2ccc(Cl)cc2)cc1,20.6
4,COc1ccc(C(=O)N2CCc3cc(OC)c(OC)cc3C2)cc1OC,36.7
5,c1ccc2c(C3=NNC(=NC4CC4)SC3)c[nH]c2c1,17.2
6,O=C(NC(NC(=S)Nc1ccc(Cl)c(Cl)c1)C(Cl)(Cl)Cl)c1ccco1 (stereo not drawn),23.5
7,Cc1cc(N/N=C/c2cccc(Cl)c2)nc(NCc2ccccc2)n1,23.5
8,Oc1cccc2ccc(Nc3ccccn3)nc12,2.16
9,COc1ccc(OC)c(C2=Nn3c(nnc3-c3cc(OC)c(OC)c(OC)c3)SC2)c1,22.6
10,CCCCCCOC(=O)Sc1nc2ccccc2o1,35
11,CCCC(=O)NC(c1ccccc1)c1ccc2cccnc2c1O (stereo not drawn),0.59
12,COc1ccc(C)cc1NC(=O)C(Sc1nnc(-c2ccncc2)n1-c1ccc(Cl)cc1)c1ccccc1 (stereo not drawn),22
13,CC1=C(C(=O)OCC2CCCO2)C(c2cccc(C(F)(F)F)c2)C2=C(CC(c3ccco3)CC2=O)N1 (stereo not drawn),42.7
14,Cc1cc2nc3ccc(=[N+](C)C)cc-3sc2cc1N,1
15,c1ccc2c(CCNCc3ccc4c(c3)OCO4)c[nH]c2c1,24.2
16,C/C(CC(=O)Nc1ccc(Cl)c(C(F)(F)F)c1)=N\NC(=O)c1ccccc1O,20.4
17,C/C(CC(=O)Nc1ccc(Cl)c(C(F)(F)F)c1)=N\NC(=O)c1cccc(O)c1,24.2
18,Oc1c(Cl)cc(Cl)c(Cl)c1Cc1c(O)c(Cl)cc(Cl)c1Cl,14.7
19,O=C(N/N=C/c1cccc([N+](=O)[O-])c1O)c1cccs1,13.4
20,COc1ccc2ccccc2c1/C=N/NC(=O)c1sc(N)c(C#N)c1C,30.1
21,Cc1ccc(C(C[N+](=O)[O-])c2c(-c3ccccc3O)[nH][nH]c2=O)cc1 (stereo not drawn),27.7
22,Oc1c(C(c2ccccn2)N2CCOCC2)ccc2cccnc12 (stereo not drawn),13.8
23,c1csc(C2Nc3ccccc3-c3nc4ccccc4n32)c1 (stereo not drawn),33.7

row,SMILES,EC50 [µM]
1,CCCCCCCCCCCCCCCC[N+](C)(C)C,0.79
2,O=[N+]([O-])c1ccc(Sc2nc3ccccc3o2)c([N+](=O)[O-])c1,1.94
3,O=[N+]([O-])c1cc(Cl)c2cccnc2c1O,27.7
4,Cc1conc1NC(c1cccs1)c1ccc2cccnc2c1O (stereo not drawn),5.5
5,O=C(Cc1cccs1)Nc1cccc(-c2nc3cc4ccccc4cc3[nH]2)c1,12.5
6,C(=C\c1ccccc1)/C=N/Nc1nc2ccccc2[nH]1,15.5
7,Cc1ccc(C(=O)O)cc1N=Cc1cc(Br)cc(Br)c1O,37.2
8,COc1ccc(Nc2sc(C(=O)Nc3cccc(Cl)c3)c(N)c2C(=O)Nc2ccccc2OC)cc1,25.7
9,CCN(CC)CCOc1ccc2c(c1)C(=NNC(=O)c1ccccn1)c1cc(OCCN(CC)CC)ccc1-2,3.57
10,c1ccc2c(c1)Sc1ccccc1N2CC1CN2CCC1CC2 (stereo not drawn),7.93
11,Oc1c(C(Nc2cccc(C(F)(F)F)c2)c2cccnc2)ccc2cccnc12 (stereo not drawn),7.65
12,CCCCCCCCCCOC(=O)Cn1c(COc2ccc(C)cc2)[n+](C)c2ccccc21,3.37
13,CCOC(=S)SCC(=O)Nc1nc(-c2ccccc2)cs1,4.91
14,Cc1ccccc1Cn1c(=N)n(CC(=O)c2ccco2)c2ccccc21,22.8
15,CCOC(=O)Cn1nnnc1C(C(C)C)N(Cc1cccs1)Cc1cc2cc(C)ccc2[nH]c1=O (stereo not drawn),10.5
16,CCOC(=O)C(C)/C(C)=N/NC(=O)c1cc2ccccc2cc1O (stereo not drawn),6.99
17,O=C1c2ccccc2NC(c2ccc(-c3ccc(Br)cc3)o2)N1O (stereo not drawn),7.16
18,COc1ccc(OC)c(C2C=C(C34CC5CC(CC(C5)C3)C4)NC(=S)N2)c1 (stereo not drawn),49.8
19,O=C(Nc1ccc2snnc2c1)Nc1cccc2ccccc12,33.7
20,O=C(NNc1c2ccccc2nc2ccccc12)c1ccccc1O,28.3
21,C/C(=N\NC(=S)Nc1ccc(F)cc1)c1ccc2c(c1)OCCO2,10.5
22,CCN1/C(=C/C=C/C=C/c2sc3ccccc3[n+]2CC)Sc2ccccc21,4.62
23,Cc1cc(-c2nnc(-c3ccccc3)c(-c3ccccc3)n2)c(C)o1,40.3

row,SMILES,EC50 [µM]
1,CN(C)CC(C(=O)c1ccccc1)c1ccccc1 (stereo not drawn),4.94
2,Cc1ccccc1OCCCCCn1ccnc1,24.4
3,CCCCOc1ccc(CSC(=N)N)cc1[N+](=O)[O-],16.5
4,COc1ccc(/C=N/Nc2cc(C)nc3ccccc23)cc1,7.59
5,CN1C(=O)/C(=C/c2cccn2-c2ccc3ccccc3c2)C(=O)NC1=S,16.6
6,CCCCCCCCCCCCCCCC[n+]1ccc(/C=N/O)cc1,0.37
7,O=[N+]([O-])c1ccc(O)c(/C=N/Nc2ccccn2)c1,0.42
8,Oc1ccc(-c2n[nH]c(=S)n2-c2ccc3c(c2)OCCO3)c(O)c1,33.8
9,CCCCCc1ccc(OCCC[n+]2ccccc2)c(CCCCC)c1,2.78
10,Cc1c2ccncc2c(C)c2c1[nH]c1ccccc12,2.53
11,CC1OC(Nc2cccc3ccccc23)C(O)C(O)C1O (stereo not drawn),12
12,O=[N+]([O-])/C=C/c1cc2ccccc2[nH]1,31.6
13,O=C(C[n+]1cc(-c2ccc(Cl)cc2)n2c1CCC2)Nc1nc(-c2ccc(F)cc2)cs1,26.7
14,COc1ccc2c(c1)nc(N)n2Cc1ccccc1,46.3
15,O=c1[nH][nH]c(-c2ccccc2O)c1C(C[N+](=O)[O-])c1ccc(Br)cc1 (stereo not drawn),16
16,Clc1ccc(C[n+]2cc(-c3ccc(Cl)cc3)n3c2CCC3)cc1,17.7
17,Cc1ccc(-c2c[n+](CC(=O)Nc3nc(-c4ccc(F)cc4)cs3)c3n2CCC3)cc1,9.65
18,O=C(CCN1CCc2ccccc2C(c2ccccc2)C1)c1ccc2c(c1)OCCO2 (stereo not drawn),18
19,Cc1cc(C)cc(CC(Cc2nc3ccccc3[nH]2)c2nc3ccccc3[nH]2)c1 (stereo not drawn),11.8
20,C=CCNc1ncnc2c1[nH]c1ccc(Cl)cc12,12.2
21,Cc1ccc(Nc2cc(C)c3ccc(O)cc3n2)cc1C,17
22,COc1ccc(NS(=O)(=O)c2cc(C)ccc2NC(=O)c2cc(C)oc2C)cc1,0.26
23,Cn1c(-c2ccc3c(c2)OCO3)cnc1NCc1cccc(Cl)c1,15.5

row,SMILES,EC50 [µM]
1,COc1ccc(-n2c(CNc3ccc(C)cc3)nnc2SCc2ccccc2)cc1,33.3
2,C[C@H]1c2cccc(O)c2C(O)=C2C(=O)[C@]3(O)C(O)=C(C(N)=O)C(=O)[C@@H](N(C)C)[C@@H]3[C@@H](O)[C@@H]21,27.5
3,O=c1[nH]cc(F)c(=O)[nH]1,4.25
4,Cc1ccc(Nc2nc(NCc3ccco3)c3ccccc3n2)cc1,4.34
5,Cc1[nH]c2ccccc2c1C1=NNC(=Nc2ccc(F)cc2)SC1,12.6
6,OCCCNc1nc(-c2ccc(Cl)cc2)nnc1-c1ccc(Br)cc1,19.8
7,O=C(CSc1nc(Nc2ccccc2)nc(N2CCOCC2)n1)Nc1ccc([N+](=O)[O-])cc1,37.1
8,Cc1cc(C)c2nc(NNC(=O)c3ccc(S(=O)(=O)N4CCCCC4)cc3)sc2c1,4.69
9,Cc1ccc([N+](=O)[O-])cc1-c1ccc(/C=C(\C#N)c2[nH]nc(N)c2C#N)o1,5.93
10,Cc1ccc(-c2cc(C(=O)Nc3nccs3)c3ccccc3n2)o1,31.7
11,Cc1ccc(SC(c2ccc(C)cc2)C(Cn2cncn2)C(=O)c2ccccc2)cc1 (stereo not drawn),49.8
12,O=Cc1ccc(O)c2ncccc12,3.79
13,CN(CCO)c1cc(Sc2nc3ccccc3s2)c2nonc2c1[N+](=O)[O-],15.8
14,CCCCCCOC(=O)C[N+](C)(C)CCOC1CC2CCC1(C)C2(C)C (stereo not drawn),2.8
15,Oc1cccc(Nc2nc(NCC3CCCO3)c3ccccc3n2)c1 (stereo not drawn),2.26
16,CCc1ccc2[nH]c(=O)c(CN(Cc3ccccc3)C(=O)Nc3ccccc3OC)cc2c1,43.1
17,CCCCCCNC(=O)c1cn(CC)c2cc(N3CCN(C)CC3)c(F)cc2c1=O,16.1
18,CCCCCCCCCCCCCCCCn1cc[n+](CC(C)=O)c1,0.8
19,COc1cccc(C2CC(=O)Nc3cc(OC)c(OC)c(OC)c32)c1OC (stereo not drawn),46.2
20,O=C1NC(=S)S/C1=C\C=C\c1ccc([N+](=O)[O-])o1,9.07
21,O=c1[nH]c(NNC(=S)NCc2ccccc2)nc2c1C1(CCCCC1)Cc1ccccc1-2,45.1
22,CC[C@@H](C)[C@H](CNC)NC[C@@H](Cc1cccc2ccccc12)NCCc1cccc(C(F)(F)F)c1,7
23,CCCCCCCCn1c2c(c(=N)c3ccccc31)CCC2,0.98

row,SMILES,EC50 [µM]
1,COc1cccc(/C=N/n2c(C)nc3ccccc3c2=O)c1O,27.7
2,COc1ccc(/C=C/C(=O)NC(=S)NNC(=O)c2cnccn2)cc1,2.02
3,CN(C)CCCN(C(=O)CCc1ccccc1)c1nc2ccc(Cl)cc2s1,25.9
4,O=C(N/N=C/c1ccc(Sc2ccccn2)o1)c1cc2ccccc2cc1O,35.4
5,COc1cccc2[nH]c3c(N4CCN(Cc5ccc6c(c5)OCO6)CC4)ncnc3c12,47.9
6,O=C(Nc1ccc(O)cc1)c1cc2n(n1)C(C(F)(F)F)CC(c1ccco1)N2 (stereo not drawn),11.9
7,CC(C)COc1ccc(Cc2cnc(N)nc2N)cc1,36.9
8,C#CCOCCOCCOCCNc1nc(N2CCN(C(=O)CCCCCCCCCCNC(=O)[C@H](CO)n3cc(CCCCCN)nn3)CC2)nc(N2CCN(C(=O)CCCCCCCCCCNC(=O)[C@H](CCCN=C(N)N)n3cc(C[C@@H](C)CC)nn3)CC2)n1,8.9
9,O=C(Oc1c(CN2CCOCC2)cc(Cl)c2cccnc12)c1ccc(F)cc1,7.06
10,CCCCCn1c(N)c(C(=O)NCc2cccs2)c2nc3ccccc3nc21,15.4
11,CC(C)(C)c1nn(-c2ccccc2)c2[nH]c(=O)c(CNCc3ccco3)cc12,49.6
12,O=CN/N=C/c1c(O)ccc2ccccc12,5.18
13,Oc1[nH]c(=S)sc1/C=C1\C(c2ccccc2)=Nc2ccccc21,26
14,CNc1cc(Cl)c2nonc2c1[N+](=O)[O-],3.65
15,O=C(Nc1nnc(-c2cccs2)o1)c1cccc(Oc2ccccc2)c1,19.6
16,O=C(c1ccco1)[C@@H]1[C@@H]2C(=O)N(c3ccc(F)cc3)C(=O)[C@@H]2[C@H]2C=Cc3ccccc3N21,23.5
17,Cn1c(NCc2cc(Br)ccc2O)nc2ccccc21,37.5
18,N/C(=N\OC(=O)N1c2ccccc2Sc2ccccc21)c1ccccc1,25.1
19,Oc1ccc(CN2CCN(Cc3ccccc3)CC2)c2cccnc12,12.9
20,CC(=O)NC(c1ccc2ccccc2c1)c1ccc2cccnc2c1O (stereo not drawn),0.24
21,C/C(=N\N=C(N)N)c1ccc(Cl)c(Cl)c1,11.2
